Measurements as given in patent publication US11952388B2, “Crystal form of tri-cycle compound and application thereof” (FUJIAN AKEYLINK BIOTECHNOLOGY CO., LTD., priority 2018, dated 2024).

Assays:
HBV = HBV in vitro test: quantitative qPCR of HBV DNA in HepG2.2.15 cells; assay type: cell-based
Procedure: The HBV DNA content in HepG2.2.15 cells was detected by Real-time quantitative qPCR, and EC50 value of compounds was used as an indicator to evaluate inhibitory effect of compounds on HBV.
2.1 Cell Line: HepG2.2.15 Cells
3.1 HepG2.2.15 cells (4×10^4 cells/well) were bedded to a 96-well plate and cultured overnight at 37° C., 5% CO2.
3.2 On the day 2, the compound was diluted to a total of 8 concentrations, with a 3-fold gradient dilution. Different concentrations of compounds were added to the culture wells in duplicate. The final concentration of DMSO in the culture medium was 1%. 1 μM GLS4 was used as a 100% inhibition control; 1% DMSO was used as a 0% inhibition control.
3.3 On the day 5, the culture medium was replaced with fresh culture medium containing the compound.
3.4 On the day 8, the culture medium in the culture wells was collected, and DNA was extracted with the high-throughput DNA purification kit (Qiagen-51162). Refer product manual for specific steps.
3.6 15 μL of reaction mixture was added to each well of a 96-well PCR plate, and then 10 μL of sample DNA or HBV DNA standard was added to each well.
3.7 The reaction settings for PCR are: heating at 95° C. for 10 minutes; then denaturation at 95° C. for 15 seconds, and extension at 60° C. for 1 minute, a total of 40 cycles. […]

CYP2C9 = biological target: T1, CYP2C9 (Homo sapiens, UniProt P11712); test: Inhibition of human liver microsomal cytochrome P450 isoenzymes; assay type: in vitro ADME; details: human liver microsomes
T1 construct: from tissue; host or cells: human liver microsomes
T1 sequence (P11712 whole entry): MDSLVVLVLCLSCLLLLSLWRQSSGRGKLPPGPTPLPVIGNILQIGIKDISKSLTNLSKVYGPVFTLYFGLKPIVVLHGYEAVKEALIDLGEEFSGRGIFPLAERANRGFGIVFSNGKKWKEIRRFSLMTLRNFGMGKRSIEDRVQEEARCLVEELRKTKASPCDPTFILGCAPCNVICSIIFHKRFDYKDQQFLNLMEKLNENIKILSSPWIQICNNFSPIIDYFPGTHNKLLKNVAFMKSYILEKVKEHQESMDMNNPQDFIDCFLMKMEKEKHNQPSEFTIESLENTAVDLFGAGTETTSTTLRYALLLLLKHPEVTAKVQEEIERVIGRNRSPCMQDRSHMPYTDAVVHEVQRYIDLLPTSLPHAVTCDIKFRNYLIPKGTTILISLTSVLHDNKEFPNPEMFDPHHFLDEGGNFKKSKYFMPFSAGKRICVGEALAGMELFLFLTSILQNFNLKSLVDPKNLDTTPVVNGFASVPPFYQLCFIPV
Procedure: (§1) Objectives of experiment: To determine the inhibitory effect of the test compound on the activity of human liver microsomal cytochrome P450 isoenzymes (CYP1A2, CYP2C9, CYP2C19, CYP2D6 and CYP3A4). Experimental operation: First, the test compound (10 mM) was diluted in a gradient to prepare the working solutions (100× final concentration). The concentrations of the working solutions were 5, 1.5, 0.5, 0.15, 0.05, 0.015 and 0.005 mM. Meanwhile, the working solutions of mixture (5 in 1) of positive inhibitors of each P450 isoenzyme (CYP1A2, CYP2C9, CYP2C19, CYP2D6 and CYP3A4) and the specific substrate of the isoenzymes were also prepared; the human liver microsomes frozen in the refrigerator at −80° C. were unfrozen on ice. After the human liver microsomes were completely dissolved, they were diluted with PB to prepare a certain concentration (0.253 mg/mL) of working solution; 20 uL of the substrate mixture was added into the reaction plate (20 μl PB was added into the Blank well) as well as 158 μL of human liver microsome working solution, then the reaction plate was placed on ice and set aside; at this time, 2 μL of each concentration of test compound (N=1) and specific inhibitor (N=2) were added to the corresponding well, the group without inhibitor (test compound or positive inhibitor) was added with the corresponding organic solvent as a control sample (the test compound control sample was 1:1 DMSO:MeOH, and the positive control sample was 1:9 DMSO:MeOH); after pre-incubating in a 37° C. water bath for 10 min, the reaction plate was added with 20 μL of coenzyme factor (NADPH) solution and water bathed at 37° C. for 10 min; 400 μL of cold acetonitrile solution (internal standard was 200 ng/mL Tolbutamide and Labetalol) was added to terminate the reaction; the reaction plate was then placed on a shaker and shaken for 10 min, followed by centrifuging at 4,000 rpm for 20 min; 200 μL of supernatant was added to 100 μL of water for sample dilution; finally, the plate was sealed, shaken well, and subjected to LC/MS/MS detection.

CYP1A2 = biological target: T2, CYP1A2 (Homo sapiens, UniProt P05177); test: as above; assay type: in vitro ADME; details: human liver microsomes
T2 construct: from tissue; host or cells: human liver microsomes
T2 sequence (P05177 1-516): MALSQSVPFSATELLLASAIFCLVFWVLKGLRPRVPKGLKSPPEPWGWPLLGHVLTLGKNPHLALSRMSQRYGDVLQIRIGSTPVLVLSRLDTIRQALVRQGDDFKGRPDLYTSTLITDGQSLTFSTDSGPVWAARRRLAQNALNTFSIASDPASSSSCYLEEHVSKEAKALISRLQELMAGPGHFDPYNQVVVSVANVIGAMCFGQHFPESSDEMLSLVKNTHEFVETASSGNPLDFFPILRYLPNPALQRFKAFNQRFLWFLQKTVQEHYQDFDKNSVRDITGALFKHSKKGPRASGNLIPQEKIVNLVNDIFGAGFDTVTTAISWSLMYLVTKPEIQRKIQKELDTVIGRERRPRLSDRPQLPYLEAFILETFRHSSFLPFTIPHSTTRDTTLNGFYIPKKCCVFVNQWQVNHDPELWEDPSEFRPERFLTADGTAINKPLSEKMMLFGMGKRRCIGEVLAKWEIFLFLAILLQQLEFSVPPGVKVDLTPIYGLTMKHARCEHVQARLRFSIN
Procedure: as §1

CYP3A4 = biological target: T3, CYP3A4 (Homo sapiens, UniProt P08684); test: as above; assay type: in vitro ADME; details: human liver microsomes
T3 construct: from tissue; host or cells: human liver microsomes
T3 sequence (P08684 whole entry): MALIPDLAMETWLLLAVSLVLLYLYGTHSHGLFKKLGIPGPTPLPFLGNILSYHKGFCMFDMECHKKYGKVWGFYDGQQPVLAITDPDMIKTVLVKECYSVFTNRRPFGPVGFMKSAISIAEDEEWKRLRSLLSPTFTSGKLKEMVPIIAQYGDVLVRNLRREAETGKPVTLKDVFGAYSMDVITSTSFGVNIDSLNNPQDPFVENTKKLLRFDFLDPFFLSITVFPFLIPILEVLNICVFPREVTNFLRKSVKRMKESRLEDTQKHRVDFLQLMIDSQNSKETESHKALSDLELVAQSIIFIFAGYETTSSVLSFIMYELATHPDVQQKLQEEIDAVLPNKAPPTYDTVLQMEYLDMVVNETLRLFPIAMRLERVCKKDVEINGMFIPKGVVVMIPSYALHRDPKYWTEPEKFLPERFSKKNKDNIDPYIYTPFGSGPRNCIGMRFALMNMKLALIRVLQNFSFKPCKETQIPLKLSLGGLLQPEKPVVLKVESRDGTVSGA
Procedure: as §1

CYP2C19 = biological target: T4, CYP2C19 (Homo sapiens, UniProt P33261); test: as above; assay type: in vitro ADME; details: human liver microsomes
T4 construct: from tissue; host or cells: human liver microsomes
T4 sequence (P33261 whole entry): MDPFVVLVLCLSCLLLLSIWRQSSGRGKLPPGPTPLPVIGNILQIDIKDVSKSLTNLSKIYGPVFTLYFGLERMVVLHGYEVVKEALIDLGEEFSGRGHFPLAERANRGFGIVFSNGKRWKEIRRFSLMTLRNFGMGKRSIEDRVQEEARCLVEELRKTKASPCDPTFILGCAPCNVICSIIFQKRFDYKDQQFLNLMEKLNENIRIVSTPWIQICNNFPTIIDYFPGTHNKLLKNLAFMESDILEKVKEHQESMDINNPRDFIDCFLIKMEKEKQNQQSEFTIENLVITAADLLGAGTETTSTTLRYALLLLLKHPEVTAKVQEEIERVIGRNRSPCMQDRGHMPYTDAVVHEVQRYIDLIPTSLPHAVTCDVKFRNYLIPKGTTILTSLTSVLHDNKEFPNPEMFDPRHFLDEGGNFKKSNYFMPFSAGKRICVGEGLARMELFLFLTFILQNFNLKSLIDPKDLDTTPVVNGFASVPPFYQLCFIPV
Procedure: as §1

CYP2D6 = biological target: T5, CYP2D6 (Homo sapiens, UniProt P10635); test: as above; assay type: in vitro ADME; details: human liver microsomes
T5 construct: from tissue; host or cells: human liver microsomes
T5 sequence (P10635 whole entry): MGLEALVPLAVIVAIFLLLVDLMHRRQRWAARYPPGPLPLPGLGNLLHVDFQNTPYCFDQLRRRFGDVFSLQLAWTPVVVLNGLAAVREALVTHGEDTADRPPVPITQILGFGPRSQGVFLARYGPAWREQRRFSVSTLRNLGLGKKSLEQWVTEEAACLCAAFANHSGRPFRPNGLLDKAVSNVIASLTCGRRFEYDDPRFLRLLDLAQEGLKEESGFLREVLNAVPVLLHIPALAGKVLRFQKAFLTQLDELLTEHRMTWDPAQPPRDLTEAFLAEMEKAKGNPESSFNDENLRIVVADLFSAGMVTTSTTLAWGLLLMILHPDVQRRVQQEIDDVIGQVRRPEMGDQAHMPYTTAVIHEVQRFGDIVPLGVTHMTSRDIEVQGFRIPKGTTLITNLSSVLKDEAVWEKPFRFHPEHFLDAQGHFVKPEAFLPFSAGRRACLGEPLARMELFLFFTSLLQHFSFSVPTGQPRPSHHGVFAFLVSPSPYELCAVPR
Procedure: as §1

For `Cc1cc2n(c1)S(=O)(=O)c1ccc(C(=O)NCC[C@H]3COCCO3)cc1NC2=O` [compound represented by formula (I)], the “inhibitory effect on HBV (conclusion in words)” value (HBV) was “significant inhibitory effect”, the EC50 (HBV; Hepatitis B virus, HBV DNA by qPCR, read-out: 50% inhibitory concentration (EC50) value of HBV) was 0.00816 µM and the IC50 (CYP2C9) was greater than 50 µM. The “inhibitory effect on CYP2C9 (conclusion in words)” value (CYP2C9) was “no evident inhibitory effect”, the IC50 (CYP1A2) was greater than 50 µM and the “inhibitory effect on CYP1A2 (conclusion in words)” value (CYP1A2) was “no evident inhibitory effect”. The IC50 (CYP3A4) was greater than 50 µM, the “inhibitory effect on CYP3A4 (conclusion in words)” value (CYP3A4) was “no evident inhibitory effect” and the IC50 (CYP2C19) was greater than 50 µM. For the same compound, the “inhibitory effect on CYP2C19 (conclusion in words)” value (CYP2C19) was “no evident inhibitory effect”, the IC50 (CYP2D6) was greater than 50 µM and the “inhibitory effect on CYP2D6 (conclusion in words)” value (CYP2D6) was “no evident inhibitory effect”.
